Experimental data reported in PubChem BioAssay (NCI).
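Protocol summary: plate cells (96-well), add compound at 5 concentrations, incubate 48 h, interpolate endpoints linearly. Abbreviation: GI50, concentration required for 50% inhibition of growth. TGI: total growth inhibition.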

Tests used:
Test in all cases: NCI tumour cell line growth inhibition, 48 h
SW-620 colon = system: SW-620 colon
KM12 colon = system: KM12 colon
CCRF-CEM leukemia = system: CCRF-CEM leukemia
ACHN renal = system: ACHN renal
TK-10 renal = system: TK-10 renal
SF-295 CNS = system: SF-295 CNS
RPMI-8226 leukemia = system: RPMI-8226 leukemia
DU-145 prostate = system: DU-145 prostate
BT-549 breast = system: BT-549 breast
MCF7 breast = system: MCF7 breast

SMILES: CC(=O)NN1C(=O)C(Cc2ccccc2)c2ccccc21 (configuration not stated)
- TGI (SW-620 colon): > 100 µM
- TGI (KM12 colon): > 100 µM
- TGI (CCRF-CEM leukemia): > 100 µM
- TGI (ACHN renal): > 100 µM
- TGI (TK-10 renal): > 100 µM
- TGI (SF-295 CNS): > 100 µM
- TGI (RPMI-8226 leukemia): > 100 µM

SMILES: COc1cc2cnc3c4cc(OCc5ccccc5)ccc4ccc3c2cc1OC
- TGI (SW-620 colon): > 100 µM
- TGI (KM12 colon): > 100 µM
- TGI (CCRF-CEM leukemia): 17.3 µM
- TGI (ACHN renal): > 100 µM
- TGI (TK-10 renal): 44 µM
- TGI (SF-295 CNS): 82.9 µM
- TGI (RPMI-8226 leukemia): 20.2 µM

SMILES: CCC[CH2][Sn]1([CH2]CCC)[S]CC[N]1S(=O)(=O)c1ccc(C)cc1
- GI50 (KM12 colon): 2.02 µM
- TGI (KM12 colon): 3.59 µM
- GI50 (ACHN renal): 1.67 µM
- TGI (ACHN renal): 3.11 µM
- GI50 (TK-10 renal): 1.64 µM
- TGI (TK-10 renal): 3.04 µM
- GI50 (SF-295 CNS): 1.97 µM
- TGI (SF-295 CNS): 3.42 µM
- GI50 (RPMI-8226 leukemia): 0.386 µM
- TGI (RPMI-8226 leukemia): 2.01 µM

SMILES: COc1ccc(OC(C)C(=O)O)c2c(=O)ccccc12 (configuration not stated)
- TGI (SW-620 colon): > 100 µM
- TGI (KM12 colon): > 100 µM
- TGI (CCRF-CEM leukemia): > 100 µM
- TGI (ACHN renal): > 100 µM
- TGI (TK-10 renal): > 100 µM
- TGI (SF-295 CNS): > 100 µM
- TGI (RPMI-8226 leukemia): > 100 µM

SMILES: NC(=O)c1ccc(Cl)c([N+](=O)[O-])c1
- TGI (SW-620 colon): > 100 µM
- TGI (KM12 colon): > 100 µM
- TGI (CCRF-CEM leukemia): > 100 µM
- TGI (ACHN renal): > 100 µM
- TGI (TK-10 renal): > 100 µM
- TGI (SF-295 CNS): > 100 µM

SMILES: COc1ccc2[nH]c(C(=O)OCc3ccc4c(Cl)cc(Cl)c(O)c4n3)cc2c1
- GI50 (DU-145 prostate): 1.33 µM
- TGI (DU-145 prostate): 2.61 µM
- GI50 (SW-620 colon): 0.814 µM
- TGI (SW-620 colon): 2.31 µM
- GI50 (KM12 colon): 1.76 µM
- TGI (KM12 colon): 3.49 µM
- GI50 (BT-549 breast): 1.21 µM
- TGI (BT-549 breast): 2.56 µM
- GI50 (CCRF-CEM leukemia): 0.312 µM
- TGI (CCRF-CEM leukemia): 2.08 µM
- GI50 (ACHN renal): 1.08 µM
- TGI (ACHN renal): 2.26 µM
- GI50 (TK-10 renal): 1.68 µM
- TGI (TK-10 renal): 3.05 µM
- GI50 (SF-295 CNS): 5.12 µM
- TGI (SF-295 CNS): 18 µM
- GI50 (RPMI-8226 leukemia): 0.803 µM
- TGI (RPMI-8226 leukemia): 3.86 µM

SMILES: O=c1/c(=N\Nc2ccccc2)c2cccc3ccc4cccc1c4c32
- TGI (DU-145 prostate): > 100 µM
- TGI (SW-620 colon): > 100 µM
- TGI (KM12 colon): > 100 µM
- TGI (BT-549 breast): > 100 µM
- TGI (CCRF-CEM leukemia): > 100 µM
- TGI (ACHN renal): 88.6 µM
- TGI (TK-10 renal): > 100 µM
- TGI (SF-295 CNS): > 100 µM
- TGI (RPMI-8226 leukemia): > 100 µM

SMILES: C=C1C[C@@H]2C[C@@H](C)CC(O)[C@]2(CCCN)C1O (some centres not stated)
- TGI (SW-620 colon): > 100 µM
- TGI (KM12 colon): > 100 µM
- TGI (CCRF-CEM leukemia): > 100 µM
- TGI (ACHN renal): > 100 µM
- TGI (TK-10 renal): > 100 µM
- TGI (SF-295 CNS): > 100 µM
- TGI (RPMI-8226 leukemia): > 100 µM

SMILES: C1=CCCC=CCC1.C[PH+](C)C.C[PH+](C)C.C[PH+](C)C.[Cl-].[Ir]
- GI50 (SW-620 colon): 36.4 µM
- TGI (SW-620 colon): > 100 µM
- GI50 (KM12 colon): 43.6 µM
- TGI (KM12 colon): > 100 µM
- GI50 (CCRF-CEM leukemia): 19.4 µM
- TGI (CCRF-CEM leukemia): 71.7 µM
- GI50 (ACHN renal): > 100 µM
- TGI (ACHN renal): > 100 µM
- GI50 (TK-10 renal): > 100 µM
- TGI (TK-10 renal): > 100 µM
- GI50 (SF-295 CNS): > 100 µM
- TGI (SF-295 CNS): > 100 µM

SMILES: c1ccc(OC2=NC3=S(S2)SC(Oc2ccccc2)=N3)cc1
- TGI (SW-620 colon): 35.2 µM
- TGI (KM12 colon): 34.4 µM
- TGI (CCRF-CEM leukemia): 28.9 µM
- TGI (ACHN renal): 42.5 µM
- TGI (TK-10 renal): 33 µM
- TGI (SF-295 CNS): 39 µM
- TGI (RPMI-8226 leukemia): 24.8 µM

SMILES: COc1cc(/C=C2\CCCC3=C2N=C2SC(C)=NN2C3c2cc(OC)c(OC)c(OC)c2)cc(OC)c1OC (configuration not stated)
- GI50 (SW-620 colon): 0.41 µM
- TGI (SW-620 colon): > 100 µM
- GI50 (KM12 colon): 0.322 µM
- TGI (KM12 colon): > 100 µM
- GI50 (BT-549 breast): > 100 µM
- TGI (BT-549 breast): > 100 µM
- GI50 (MCF7 breast): 0.319 µM
- TGI (MCF7 breast): > 100 µM
- GI50 (TK-10 renal): > 100 µM
- TGI (TK-10 renal): > 100 µM

SMILES: CCC(CO)Nc1nc2c(c(=O)n(C)c(=O)n2C)n1CCO (configuration not stated)
- TGI (SW-620 colon): > 100 µM
- TGI (KM12 colon): > 100 µM
- TGI (ACHN renal): > 100 µM
- TGI (TK-10 renal): > 100 µM
- TGI (SF-295 CNS): > 100 µM
- TGI (RPMI-8226 leukemia): > 100 µM

SMILES: COC(=O)N/N=C(\C)CC(=O)Nc1ccc(Cl)cc1
- TGI (SW-620 colon): > 100 µM
- TGI (KM12 colon): > 100 µM
- TGI (CCRF-CEM leukemia): > 100 µM
- TGI (TK-10 renal): > 100 µM
- TGI (SF-295 CNS): > 100 µM
- TGI (RPMI-8226 leukemia): > 100 µM

SMILES: COC(=O)CC[C@]12C[C@]13CC[C@]1(C)C4C(C)C[C@]5(CC(C)C(=O)O5)OC4CC1(C)C3CCC2C(C)(C)O (some centres not stated)
- TGI (SW-620 colon): > 100 µM
- TGI (KM12 colon): > 100 µM
- TGI (ACHN renal): > 100 µM
- TGI (TK-10 renal): > 100 µM
- TGI (SF-295 CNS): > 100 µM
- TGI (RPMI-8226 leukemia): 98.7 µM

SMILES: COc1ccc2c(c1)CCc1c-2n[nH]c1-c1[nH]nc2c1CCc1cc(OC)ccc1-2
- TGI (SW-620 colon): > 100 µM
- TGI (KM12 colon): > 100 µM
- TGI (CCRF-CEM leukemia): > 100 µM
- TGI (ACHN renal): > 100 µM
- TGI (TK-10 renal): > 100 µM
- TGI (SF-295 CNS): 39.5 µM

SMILES: CC(=O)[CH-]C(=O)c1ccccc1.CC(=O)[CH-]C(=O)c1ccccc1.[O-]c1ccc2c(c1)OCO2.[O-]c1ccc2c(c1)OCO2.[Ti+4]
- GI50 (SW-620 colon): 32.1 µM
- TGI (SW-620 colon): > 100 µM
- GI50 (KM12 colon): 16.2 µM
- TGI (KM12 colon): 38.2 µM
- GI50 (CCRF-CEM leukemia): 3.66 µM
- TGI (CCRF-CEM leukemia): 30.3 µM
- GI50 (ACHN renal): 31.6 µM
- TGI (ACHN renal): > 100 µM
- GI50 (SF-295 CNS): 30.6 µM
- TGI (SF-295 CNS): > 100 µM
- GI50 (RPMI-8226 leukemia): 18.3 µM
- TGI (RPMI-8226 leukemia): 50.9 µM

SMILES: CO[C@@]1(c2ccccc2)O[C@H]2OCCC2[C@H]1c1ccc(Cl)cc1 (some centres not stated)
- TGI (SW-620 colon): > 100 µM
- TGI (KM12 colon): > 100 µM
- TGI (ACHN renal): > 100 µM
- TGI (TK-10 renal): > 100 µM
- TGI (SF-295 CNS): 59.7 µM
- TGI (RPMI-8226 leukemia): > 100 µM
